Test results taken from patent US10131652B2, “Pyrimidinyloxy benzene derivatives as herbicides” (E. I. DU PONT DE NEMOURS AND COMPANY, priority 2014, dated 2018).
Like-named read-outs stand apart in the source and are kept apart here.

What was measured:
Assay in all cases: Test D pre-/postemergence plant response
Format in all cases: in vivo
[1] = system: barnyardgrass (Echinochloa crus-galli); details: Echinochloa crus-galli; for pest or weed control at 16 g/ha: 16 g ai/ha; for pest or weed control at 31 g/ha: 31 g ai/ha; for pest or weed control at 62 g/ha: 62 g ai/ha; for pest or weed control at 125 g/ha: 125 g ai/ha
Method in brief: (§1)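 Each compound, in non-phytotoxic solvent with surfactant, was sprayed onto soil right after sowing or onto young plants 2 to 18 cm tall. After 13 to 15 days under greenhouse conditions, effects were judged visually against controls on a 0 (no effect) to 100 (complete control) scale.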

[2] = system: ragweed (common ragweed, Ambrosia elatior); details: Ambrosia artemisiifolia; for pest or weed control at 31 g/ha: 31 g ai/ha; for pest or weed control at 62 g/ha: 62 g ai/ha; for pest or weed control at 125 g/ha: 125 g ai/ha
Method in brief: as §1

[3] = system: galium (catchweed bedstraw, Galium aparine); details: Galium; for pest or weed control at 31 g/ha: 31 g ai/ha; for pest or weed control at 62 g/ha: 62 g ai/ha; for pest or weed control at 125 g/ha: 125 g ai/ha
Method in brief: as §1

[4] = system: pigweed (Amaranthus retroflexus); details: Amaranthus retroflexus; for pest or weed control at 31 g/ha: 31 g ai/ha; for pest or weed control at 62 g/ha: 62 g ai/ha; for pest or weed control at 125 g/ha: 125 g ai/ha
Method in brief: as §1

[5] = system: waterhemp (common waterhemp, Amaranthus rudis); details: Amaranthus tuberculatus; for pest or weed control at 31 g/ha: 31 g ai/ha; for pest or weed control at 62 g/ha: 62 g ai/ha; for pest or weed control at 125 g/ha: 125 g ai/ha
Method in brief: as §1

[6] = system: morningglory (Ipomoea coccinea); details: Ipomoea; for pest or weed control at 31 g/ha: 31 g ai/ha; for pest or weed control at 62 g/ha: 62 g ai/ha; for pest or weed control at 125 g/ha: 125 g ai/ha
Method in brief: as §1

[7] = system: Italian ryegrass (Lolium multiflorum); details: Lolium multiflorum; for pest or weed control at 125 g/ha: 125 g ai/ha
Method in brief: as §1

[8] = post-emergence, Postemergence, scale 0 to 100 (0 no effect, 100 complete control), read-out: Barnyardgrass plant response rating
[9] = post-emergence, Postemergence, scale 0 to 100, 0 no effect, 100 complete control, read-out: Plant response rating, Barnyardgrass
[10] = pre-emergence, Preemergence, scale 0 to 100 (0 no effect, 100 complete control), read-out: Plant response rating, Barnyardgrass
[11] = post-emergence, Postemergence, scale 0 to 100, 0 no effect, 100 complete control, read-out: Plant response rating, Ragweed
[12] = pre-emergence, Preemergence, scale 0 to 100 (0 no effect, 100 complete control), read-out: Plant response rating, Ragweed
[13] = post-emergence, Postemergence, scale 0 to 100, 0 no effect, 100 complete control, read-out: Plant response rating, Galium
[14] = pre-emergence, Preemergence, scale 0 to 100 (0 no effect, 100 complete control), read-out: Plant response rating, Galium
[15] = post-emergence, Postemergence, scale 0 to 100, 0 no effect, 100 complete control, read-out: Plant response rating, Pigweed
[16] = pre-emergence, Preemergence, scale 0 to 100 (0 no effect, 100 complete control), read-out: Plant response rating, Pigweed
[17] = post-emergence, Postemergence, scale 0 to 100, 0 no effect, 100 complete control, read-out: Plant response rating, Waterhemp
[18] = pre-emergence, Preemergence, scale 0 to 100 (0 no effect, 100 complete control), read-out: Plant response rating, Waterhemp
[19] = post-emergence, Postemergence, scale 0 to 100, 0 no effect, 100 complete control, read-out: Plant response rating, Morningglory
[20] = pre-emergence, Preemergence, scale 0 to 100 (0 no effect, 100 complete control), read-out: Plant response rating, Morningglory

Fc1cccc(Oc2ncc(Br)cn2)c1-c1cc(C(F)F)no1 [Compound 145, 5-bromo-2-[2-[3-(difluoromethyl)-5-isoxazolyl]-3-fluorophenoxy]pyrimidine]
pest or weed control at 16 g/ha [1, 8]: 5%
pest or weed control at 31 g/ha [1, 8]: 5%
pest or weed control at 62 g/ha [1, 9]: 10%
pest or weed control at 125 g/ha [1, 9]: 30%
pest or weed control at 125 g/ha ([1]; pre-emergence, Preemergence, read-out: Plant response rating (scale 0 to 100), Barnyardgrass): 100%
pest or weed control at 16 g/ha [1, 10]: 65%
pest or weed control at 31 g/ha [1, 10]: 85%
pest or weed control at 62 g/ha [1, 10]: 85%
pest or weed control at 31 g/ha ([2]; post-emergence, Postemergence, scale 0 to 100 (0 no effect, 100 complete control), read-out: Ragweed plant response rating): 50%
pest or weed control at 62 g/ha [2, 11]: 50%
pest or weed control at 125 g/ha [2, 11]: 65%
pest or weed control at 125 g/ha ([2]; pre-emergence, Preemergence, read-out: Plant response rating (scale 0 to 100), Ragweed): 100%
pest or weed control at 16 g/ha ([2]; pre-emergence, Preemergence, 16 g ai/ha, scale 0 to 100 (0 no effect, 100 complete control), read-out: Plant response rating, Ragweed): 25%
pest or weed control at 31 g/ha [2, 12]: 60%
pest or weed control at 62 g/ha [2, 12]: 75%
pest or weed control at 31 g/ha ([3]; post-emergence, Postemergence, scale 0 to 100 (0 no effect, 100 complete control), read-out: Galium plant response rating): 80%
pest or weed control at 62 g/ha [3, 13]: 80%
pest or weed control at 125 g/ha [3, 13]: 90%
pest or weed control at 125 g/ha ([3]; pre-emergence, Preemergence, read-out: Plant response rating (scale 0 to 100), Galium): 100%
pest or weed control at 16 g/ha ([3]; pre-emergence, Preemergence, 16 g ai/ha, scale 0 to 100 (0 no effect, 100 complete control), read-out: Plant response rating, Galium): 90%
pest or weed control at 31 g/ha [3, 14]: 98%
pest or weed control at 62 g/ha [3, 14]: 100%
pest or weed control at 31 g/ha ([4]; post-emergence, Postemergence, scale 0 to 100 (0 no effect, 100 complete control), read-out: Pigweed plant response rating): 95%
pest or weed control at 62 g/ha [4, 15]: 98%
pest or weed control at 125 g/ha [4, 15]: 98%
pest or weed control at 125 g/ha ([4]; pre-emergence, Preemergence, read-out: Plant response rating (scale 0 to 100), Pigweed): 100%
pest or weed control at 16 g/ha ([4]; pre-emergence, Preemergence, 16 g ai/ha, scale 0 to 100 (0 no effect, 100 complete control), read-out: Plant response rating, Pigweed): 100%
pest or weed control at 31 g/ha [4, 16]: 100%
pest or weed control at 62 g/ha [4, 16]: 100%
pest or weed control at 31 g/ha ([5]; post-emergence, Postemergence, scale 0 to 100 (0 no effect, 100 complete control), read-out: Waterhemp plant response rating): 90%
pest or weed control at 62 g/ha [5, 17]: 100%
pest or weed control at 125 g/ha [5, 17]: 100%
pest or weed control at 125 g/ha ([5]; pre-emergence, Preemergence, read-out: Plant response rating (scale 0 to 100), Waterhemp): 100%
pest or weed control at 16 g/ha ([5]; pre-emergence, Preemergence, 16 g ai/ha, scale 0 to 100 (0 no effect, 100 complete control), read-out: Plant response rating, Waterhemp): 100%
pest or weed control at 31 g/ha [5, 18]: 100%
pest or weed control at 62 g/ha [5, 18]: 100%
pest or weed control at 31 g/ha ([6]; post-emergence, Postemergence, scale 0 to 100 (0 no effect, 100 complete control), read-out: Morningglory plant response rating): 85%
pest or weed control at 62 g/ha [6, 19]: 85%
pest or weed control at 125 g/ha [6, 19]: 80%
pest or weed control at 125 g/ha ([6]; pre-emergence, Preemergence, read-out: Plant response rating (scale 0 to 100), Morningglory): 100%
pest or weed control at 16 g/ha ([6]; pre-emergence, Preemergence, 16 g ai/ha, scale 0 to 100 (0 no effect, 100 complete control), read-out: Plant response rating, Morningglory): 15%
pest or weed control at 31 g/ha [6, 20]: 55%
pest or weed control at 62 g/ha [6, 20]: 90%
pest or weed control at 31 g/ha ([7]; post-emergence, Postemergence, 31 g ai/ha, scale 0 to 100 (0 no effect, 100 complete control), read-out: Ryegrass, Italian plant response rating): 0%
pest or weed control at 62 g/ha ([7]; post-emergence, Postemergence, 62 g ai/ha, scale 0 to 100, 0 no effect, 100 complete control, read-out: Plant response rating, Ryegrass, Italian): 10%
pest or weed control at 125 g/ha ([7]; post-emergence, Postemergence, scale 0 to 100, 0 no effect, 100 complete control, read-out: Plant response rating, Ryegrass, Italian): 10%
pest or weed control at 125 g/ha ([7]; pre-emergence, Preemergence, read-out: Plant response rating (scale 0 to 100), Ryegrass, Italian): 85%
pest or weed control at 16 g/ha ([7]; pre-emergence, Preemergence, 16 g ai/ha, scale 0 to 100 (0 no effect, 100 complete control), read-out: Plant response rating, Ryegrass, Italian): 0%
